Laboratory results published in PubChem BioAssay (NCI).
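In this assay, cells in 96-well plates receive the compound at five concentrations for 48 hours. Endpoints are linearly interpolated between the surrounding concentrations. TGI: total growth inhibition.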

Columns and labels:
Experiment in all cases: NCI-60 cell line screen, 48 h
[1] = test system: NCI-H522 lung
[2] = test system: UO-31 renal
[3] = test system: DLD-1 colon
[4] = test system: ACHN renal
[5] = test system: HCT-15 colon
[6] = test system: COLO 205 colon
[7] = test system: SF-539 CNS
[8] = test system: OVCAR-4 ovarian
[9] = test system: NCI-H226 lung
[10] = test system: LOX IMVI melanoma
[11] = test system: HL-60(TB) leukemia
[12] = test system: NCI-H23 lung
[13] = test system: SK-OV-3 ovarian
[14] = test system: EKVX NSCLC
[15] = test system: U251 CNS
[16] = test system: SNB-19 CNS
[17] = test system: SF-295 CNS
[18] = test system: HOP-62 NSCLC
[19] = test system: M19-MEL melanoma
[20] = test system: SNB-75 CNS
[21] = test system: NCI-H460 lung
[22] = test system: 786-0 renal
[23] = test system: CCRF-CEM leukemia
[24] = test system: RXF 393 renal
[25] = test system: MOLT-4 leukemia
[26] = test system: OVCAR-8 ovarian
[27] = test system: RXF-631 renal
[28] = test system: SR leukemia
[29] = test system: SK-MEL-28 melanoma
[30] = test system: A549 NSCLC
[31] = test system: DMS 273 small cell lung
[32] = test system: IGROV1 ovarian
[33] = test system: SN12C renal
[34] = test system: HT29 colon
[35] = test system: XF 498 CNS
[36] = test system: HCC-2998 colon
[37] = test system: SK-MEL-2 melanoma
[38] = test system: TK-10 renal
[39] = test system: UACC-62 melanoma
[40] = test system: K-562 leukemia
[41] = test system: M14 melanoma
[42] = test system: MALME-3M melanoma
[43] = test system: CAKI-1 renal
[44] = test system: SW-620 colon
[45] = test system: OVCAR-5 ovarian
[46] = test system: KM20L2 colon
[47] = test system: KM12 colon
[48] = test system: DMS 114 small cell lung
[49] = test system: UACC-257 melanoma
[50] = test system: LXFL 529 NSCLC
[51] = test system: RPMI-8226 leukemia
[52] = test system: SF-268 CNS
[53] = test system: OVCAR-3 ovarian
[54] = test system: HCT-116 colon
[55] = test system: HOP-92 NSCLC
[56] = test system: SK-MEL-5 melanoma

With `CC(=O)COC(=O)CC(C)=O` the TGI [1] was > 100 µM, the TGI [2] was > 100 µM and the TGI [3] was > 100 µM. For the same compound, the TGI [4] was > 100 µM, the TGI [5] was > 100 µM and the TGI [6] was > 100 µM. For the same compound, the TGI [7] was > 100 µM, the TGI [8] was > 100 µM and the TGI [9] was > 100 µM. For the same compound, the TGI [10] was > 100 µM, the TGI [11] was > 100 µM and the TGI [12] was > 100 µM. The TGI [13] was > 100 µM, the TGI [14] was > 100 µM and the TGI [15] was > 100 µM. The TGI [16] was > 100 µM, the TGI [17] was > 100 µM and the TGI [18] was > 100 µM. For the same compound, the TGI [19] was > 100 µM, the TGI [20] was > 100 µM and the TGI [21] was > 100 µM. The TGI [22] was > 100 µM, the TGI [23] was > 100 µM and the TGI [24] was > 100 µM. The TGI [25] was > 100 µM, the TGI [26] was > 100 µM and the TGI [27] was > 100 µM. For the same compound, the TGI [28] was > 100 µM, the TGI [29] was > 100 µM and the TGI [30] was > 100 µM. For the same compound, the TGI [31] was > 100 µM, the TGI [32] was > 100 µM and the TGI [33] was > 100 µM. The TGI [34] was > 100 µM, the TGI [35] was > 100 µM and the TGI [36] was > 100 µM. For the same compound, the TGI [37] was > 100 µM, the TGI [38] was > 100 µM and the TGI [39] was > 100 µM. For the same compound, the TGI [40] was > 100 µM, the TGI [41] was > 100 µM and the TGI [42] was > 100 µM. The TGI [43] was > 100 µM, the TGI [44] was > 100 µM and the TGI [45] was > 100 µM. For the same compound, the TGI [46] was > 100 µM, the TGI [47] was > 100 µM and the TGI [48] was > 100 µM. The TGI [49] was > 100 µM, the TGI [50] was > 100 µM and the TGI [51] was > 100 µM. For the same compound, the TGI [52] was > 100 µM, the TGI [53] was > 100 µM and the TGI [54] was > 100 µM.

With `NC(N)=N/N=C(/CCN1CCCC1)CC(c1ccccc1)c1c(O)c2ccccc2oc1=O` (centres undefined) the TGI [1] was > 100 µM, the TGI [3] was > 100 µM and the TGI [4] was > 100 µM. The TGI [6] was > 100 µM, the TGI [7] was > 100 µM and the TGI [8] was > 100 µM. For the same compound, the TGI [9] was > 100 µM, the TGI [10] was > 100 µM and the TGI [12] was > 100 µM. For the same compound, the TGI [13] was > 100 µM, the TGI [14] was > 100 µM and the TGI [16] was > 100 µM. For the same compound, the TGI [17] was > 100 µM, the TGI [18] was > 100 µM and the TGI [19] was > 100 µM. For the same compound, the TGI [20] was > 100 µM, the TGI [22] was > 100 µM and the TGI [24] was > 100 µM. For the same compound, the TGI [27] was > 100 µM, the TGI [29] was > 100 µM and the TGI [30] was > 100 µM. The TGI [32] was > 100 µM, the TGI [55] was > 100 µM and the TGI [33] was > 100 µM. For the same compound, the TGI [34] was > 100 µM, the TGI [35] was > 100 µM and the TGI [36] was > 100 µM. The TGI [37] was > 100 µM, the TGI [38] was > 100 µM and the TGI [39] was > 100 µM. The TGI [40] was > 100 µM, the TGI [41] was > 100 µM and the TGI [42] was > 100 µM. For the same compound, the TGI [43] was > 100 µM, the TGI [44] was > 100 µM and the TGI [46] was > 100 µM. For the same compound, the TGI [48] was > 100 µM, the TGI [49] was > 100 µM and the TGI [50] was > 100 µM. For the same compound, the TGI [51] was > 100 µM, the TGI [52] was > 100 µM and the TGI [53] was > 100 µM. For the same compound, the TGI [54] was > 100 µM.

`COC(=O)C1=C(C(=O)OC)C2(C)OC1C(=O)C21CC1` (centres undefined) was tested, and the TGI [1] was 25.9 µM, the TGI [2] was > 100 µM and the TGI [3] was 51.1 µM. For the same compound, the TGI [4] was 41.6 µM, the TGI [5] was 44.6 µM and the TGI [6] was 56.5 µM. The TGI [7] was 41.5 µM, the TGI [8] was 25.1 µM and the TGI [9] was > 100 µM. For the same compound, the TGI [10] was 45.3 µM, the TGI [11] was 39.6 µM and the TGI [12] was 51.2 µM. The TGI [13] was > 100 µM, the TGI [14] was > 100 µM and the TGI [15] was > 100 µM. For the same compound, the TGI [16] was > 100 µM, the TGI [17] was > 100 µM and the TGI [18] was > 100 µM. For the same compound, the TGI [19] was > 100 µM, the TGI [20] was 99.7 µM and the TGI [21] was 63.5 µM. The TGI [22] was > 100 µM, the TGI [56] was > 100 µM and the TGI [23] was 39.6 µM. The TGI [24] was 32.3 µM, the TGI [25] was 44.9 µM and the TGI [26] was 52.8 µM. The TGI [27] was 36.1 µM, the TGI [28] was 44.6 µM and the TGI [30] was > 100 µM. It also gave a TGI [31] of 40.2 µM, a TGI [32] of 57.7 µM and a TGI [33] of 43.4 µM. For the same compound, the TGI [34] was 37 µM, the TGI [35] was 26.5 µM and the TGI [36] was 53 µM. The TGI [37] was > 100 µM, the TGI [40] was 69.1 µM and the TGI [41] was 34.9 µM. The TGI [42] was 70.6 µM, the TGI [43] was 44.1 µM and the TGI [44] was 38.6 µM. For the same compound, the TGI [45] was > 100 µM, the TGI [46] was 65.7 µM and the TGI [47] was > 100 µM. For the same compound, the TGI [48] was 42.9 µM, the TGI [49] was > 100 µM and the TGI [50] was 35.1 µM. For the same compound, the TGI [51] was 42.7 µM, the TGI [52] was > 100 µM and the TGI [53] was 55.8 µM. For the same compound, the TGI [54] was 43.4 µM.
